According to PMC10850501 (Nature Communications, 2024):
Entries after “also recorded” stand apart in the source; their conditions may differ. Where two headings read alike, the source gives them in different places. Peptide text beside a SMILES is read from it.

Assays:
[1] = Subcutaneous bolus biocompatibility; assay type: in vivo, rat (female Wistar)
Description: The peptide hydrogel was prepared at 10 mg/mL in sterile saline and aspirated in sterile 1 mL syringes, with careful attention to avoid air bubbles. Female Wistar rats (225–250 g, 8–12 weeks old) were used for dorsal subcutaneous implantation. The rats were anesthetized using 2.5% isoflurane and […], after which the back of the rat’s hair was shaved and sterilized with 3 alternating applications of isopropanol and betadine. 200 µL boluses of the peptide hydrogel were injected with a 25 G needle at n = 4 for a time point of 7 days. After the time point, the animals were sacrificed, and the implant regions were collected and fixed overnight in 10% buffered formalin. The Rutgers Cancer Institute of New Jersey histology core processed the paraffin-embedded samples for histological evaluation after staining with hematoxylin and eosin and Masson’s Trichrome. Samples were also fixed in glutaraldehyde and formaldehyde, processed to eponate blocks, and sectioned with an ultramicrotome for electron microscopy imaging (above)[30],[76],[87].
(§1) Female Wistar rats (225–250 g, 8–12 weeks old) were observed and acclimatized for 2 weeks prior to running the studies. They were housed in a controlled environment with temperature at […] and 40–70% humidity. They were kept in an alternating 12-hour light/dark cycle, and food, and water was provided as pellets ad libitum. Female Wistar Rats were used for the pharmacokinetics and the drug clearance analysis from the blood. The two hydrogels (ESBP2 and ESBP3) at 10 mg/ml concentration were injected into the rats via the lateral tail vein. For subcutaneous implants, the substance was injected between the shoulder blades and above the lumbar vertebrae, 200 μL each, using a 25-gauge needle. The hydrogel bolus was prepared with 0.9% saline and was injected within 1–2 minutes. The volume injected was approximately 1% of the total body weight of the rat, which was calculated prior to the dosing. The initial blood draw was performed for baseline, and the subsequent blood collection was performed from the lateral vein using 25 g butterfly needles.

[2] = biological target: SARS-CoV-2 Spike-RBD (Severe acute respiratory syndrome coronavirus 2, UniProt P0DTC2); assay type: binding
[3] = system: SARS-CoV-2 live virus (B.1 lineage), Vero E6 cells; assay type: cell-based
[4] = Intranasal repeat dose tolerability; assay type: in vivo, mouse (female C57BL/6); details: 25µL / nostril x 2 daily for 10 days in mice; histopathology H&E, MT
Description: Female C57BL/6 mice (15–20 g, 8–12 weeks old) were used for intranasal dosing of the peptide. As mentioned previously, 25 µl of hydrogels were injected into each of the nasal cavities twice daily at an interval of 8 hours for 10 days consecutively. The organs were harvested at the final time point, and sectioning was performed for histological evaluation. The plasma was also collected for quantifying peptide clearance in the bloodstream of the animal model.

[5] = system: A549 cells; test: Cytocompatibility (CCK8); assay type: cell-based, human; details: human alveolar epithelial A549 cells; 0.01-1 mM
Description: (§2) Cytocompatibility of the peptides was evaluated at 1, 0.1, and 0.01 mM with A549 cells (ATCC CCL-185) cultured in complete media consisting of 90% F-12K and 10% FBS. The A549 cells were utilized after their first passage and seeded at 10,000 cells/well in a 96-well plate for 24 hours. The conditions were prepared in serum-free A549 media and introduced into the wells for 6 hours, after which the condition media were aspirated, the wells were washed once with PBS, and 10 µL of CCK8 was added to 100 µL of PBS[32]. The plate was incubated for 1 hour and read on a Tecan M200 Infinite plate reader at an absorbance of 450 nm with a reference wavelength of 650 nm. The results were analyzed and normalized to the serum-free media control[28],[32],[76].

[6] = Cytocompatibility (CCK8); assay type: cell-based, human; details: human, A549 cells, read-out: cytocompatibility, normalized to serum free media; for viability at 6 h, 10 µM: 0.01 mM peptide; for viability at 6 h, 100 µM: 0.1 mM peptide; for viability at 6 h, 1000 µM: 1 mM peptide
Description: as §2

[7] = Ultracentrifugation pellet / solid-state NMR of assemblies; assay type: physicochemical; details: 10 mg/mL, 150,000 RCF, 30 minutes, 4 °C
Description: To experimentally validate E1:ESBP3 peptide mixtures, solid-state NMR experiments were pursued. ^13C solid-state NMR measurements were conducted using cross-polarization magic angle spinning (^1H-^13C CPMAS) to evaluate sample structural order and structural differences between samples. The peptides were not isotopically enriched, so the ^13C signal was from the 1% natural abundance for ^13C.
After peptide dissolution at 10 mg/mL, the samples were concentrated by ultracentrifugation for 30 minutes in Bruker 3.22 mm NMR rotors at 4 °C and 150,000 RCF in Ultra-clear tubes of SW-41 Ti swinging bucket rotor fitted onto a Beckman Optima XPN-100 centrifuge. A 11.75 T magnet Bruker Avance III HD 500 spectrometer (500 MHz, ^1H NMR Larmor frequency) equipped with a room temperature 3.2 mm Bruker Low-E ^1H/^13C/^15N NMR probe was used for measurements. ^13C chemical shift referencing was conducted using adamantane referenced to tetramethylsilane. 1D ^13C cross-polarization magic angle spinning (CPMAS) spectra were collected using the standard Bruker cp pulse sequence. A 10 kHz magic angle spinning speed was used for all samples. The channels frequency for the optimization of the Hartmann-Hahn condition for ^1H and ^13C are 500.133 MHz and 125.771 MHz, respectively. A recycle delay time of 4 seconds (d1) and dwell time of 5 μs (DW) were used. Acquisition time was set to 10.24 ms. […]

[8] = Daily repeat IV dosing, 10 days (chronic PK/safety); assay type: in vivo, rat (female Wistar)
Description: as §1
Female Wistar rats (225–250 g, 8–12 weeks old) were weighed and repeatedly dosed (1% by weight) IV with ESBP2 or ESBP3 daily at 10 mg/mL (~3 mM). Rat blood samples were collected daily prior to injection via tail vein. Post 10 days of treatment, animals were allowed to recover for 10 days and then sacrificed. Plasma was stored and analyzed as above. The body weight was recorded every day prior to the blood collection.

## CC[C@H](C)[C@H](NC(=O)[C@H](Cc1ccc(O)cc1)NC(=O)[C@@H](NC(=O)[C@H](CCCCN)NC(=O)[C@H](Cc1ccc(O)cc1)NC(=O)[C@H](CCC(N)=O)NC(=O)CNC(=O)[C@H](CCC(=O)O)NC(=O)[C@H](CC(C)C)NC(=O)[C@H](CO)NC(=O)[C@H](CC(C)C)NC(=O)[C@H](CO)NC(=O)[C@H](CC(C)C)NC(=O)[C@H](CO)NC(=O)[C@H](CC(C)C)NC(=O)[C@H](CO)NC(=O)[C@H](CC(C)C)NC(=O)[C@H](CO)NC(=O)[C@H](CC(C)C)NC(=O)[C@H](CO)NC(=O)[C@H](CCC(=O)O)NC(C)=O)[C@@H](C)O)C(=O)N[C@@H](CC(=O)O)C(=O)N[C@@H](CCCCN)C(=O)N[C@@H](CC(N)=O)C(=O)N[C@@H](CC(N)=O)C(=O)N[C@@H](Cc1c[nH]cn1)C(=O)N[C@@H](Cc1ccc(O)cc1)C(=O)N[C@@H](C)C(=O)N[C@@H](CCC(=O)O)C(=O)N[C@@H](CC(=O)O)C(=O)N[C@@H](CCC(=O)O)C(=O)N[C@@H](CCCNC(=N)N)C(=O)N[C@@H](Cc1ccc(O)cc1)C(=O)N[C@@H](CCCCN)C(N)=O [ESBP3] (Ac-ESLSLSLSLSLSLEGQYKTYIDKNNHYAEDERYK-NH2)
[1]; 200 µL, 10 mg/mL, once, daily blood draws for 10 days
  peptide in plasma after subcutaneous bolus: no detectable ESBP3
[1]; 200 µL, 10 mg/mL, once, rats, daily blood draws for 10 days
  subcutaneous bolus tolerability, in words: no significant body weight changes or adverse organ morphology; also recorded: no weight loss or adverse event
[1]; 7 days
  histology of Sub-Q implanted boluses (H&E, Masson's Trichrome): infiltration of boluses with neutrophils/ macrophages
[2]
  ITC binding to Spike RBD, in words: ESBP3-Spike-binding events
  ITC self-assembly, in words: supported spontaneous self-assembly
[3]
  Comparative, Average: 66.6154
  inhibition of live virus, in words: dose-dependent inhibition of live virus
  live virus plaque inhibition, in words: no major differences
[4]
  intranasal repeat dosing safety, in words: no significant body weight changes or adverse organ morphology; also recorded: nasal turbinate showing no adverse effects; also recorded: no adverse toxicity
[5]
  cytocompatibility, in words: excellent cytocompatibility
[6]; replicate 1, CCK8, 6 h
  viability at 6 h, 10 µM: 91.9%
  viability at 6 h, 100 µM: 87.2%
[6]; replicate 2, CCK8, 6 h
  viability at 6 h, 10 µM: 85.4%
  viability at 6 h, 100 µM: 97.6%
  viability at 6 h, 1000 µM: 125%
[6]; replicate 3, CCK8, 6 h
  viability at 6 h, 100 µM: 85.4%
  viability at 6 h, 1000 µM: 119%
[6]; replicate 1, CCK8, 6 h exposure, absorbance 450 nm
  viability at 6 h, 1000 µM: 106%
[7]
  ultracentrifuge pellet (assembly into nanofibers): no pellet
[8]; daily IV for 10 days, ~1 w% (10 mg/mL), 225-250 g adult rats
  repeat IV dosing safety, in words: no adverse effect
[8]; daily repeated IV dosing for 10 days, rats
  significant changes in body weight (ESBP3 also animal behavior, adverse events, gross organ morphology) compared to carrier: no
